This note sets out measurements from article PMC10267138, “A polyamine acetyltransferase regulates the motility and biofilm formation of Acinetobacter baumannii” (Nature Communications, 2023).

The target of one assay is T1, Dpa (Acinetobacter baumannii, UniProt V5VBK4).
T1 construct: gene ABR2091_2278; his-tagged Dpa from pKK223.3, expressed in E. coli DJ624 delta-ara; C-terminal beta-strand swapped dimer
The experiment in a line: X-ray crystal structure. The format is binding. The settings on record: crystallised with 0.1 mM acetyl-CoA, pH 8.5.

For a further assay, the target named is T2, SpeG (Escherichia coli, UniProt P0A951).
T2 construct: his-tagged SpeG from pKK223.3, expressed in E. coli DJ624 delta-ara
T2 sequence (P0A951 2-186): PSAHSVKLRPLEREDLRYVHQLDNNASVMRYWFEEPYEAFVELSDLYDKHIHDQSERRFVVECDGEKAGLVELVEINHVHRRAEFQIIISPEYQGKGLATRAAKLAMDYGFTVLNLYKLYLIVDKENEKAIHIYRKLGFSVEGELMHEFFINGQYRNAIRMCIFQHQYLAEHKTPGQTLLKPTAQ
The experiment in a line: DTNB acetylation assay. The settings on record: acetyl-CoA co-substrate 0.5 mM; substrate 5 mM; pH 8.0; 30 °C. Format: biochemical.

The target of assay [1] is his-Dpa (A. baumannii diaminopropane acetyltransferase Dpa, wild type) (Acinetobacter baumannii). The experiment in a line: crystal structure; his-Dpa at 10 mg/ml crystallised with 0.1 mM acetyl-CoA; 0.2 M sodium acetate, 0.1 M Tris-HCl pH 8.5, 30% PEG 4000, 20 °C.
Assay [2] shares this target. The experiment in a line: SEC; analytic SEC on Superdex75 increase, 50 mM Tris-HCl pH 8, 250 mM NaCl; 500 μL of 20 μM protein injected; where indicated pre-incubated with 5-fold molar excess of acCoA and/or 1,3-DAP.
Assay [3] addresses his-Dpa_(Y128F) (catalytically impaired Dpa) (Acinetobacter baumannii). The experiment in a line: crystal structure.

Take `CC(=O)SCCNC(=O)CCNC(=O)[C@H](O)C(C)(C)COP(=O)(O)OP(=O)(O)OC[C@H]1O[C@@H](n2cnc3c(N)ncnc32)[C@H](O)[C@@H]1OP(=O)(O)O` [acetyl-CoA]: the X-ray crystal structure entry at Dpa is on record as “we determined the structure of Dpa bound to acCoA”.
As to `NCCCCNCCCN` [spermidine], on SpeG, the DTNB acetylation assay result was “SpeG acetylated the long polyamines Spermine and Spermidine”.
On the same count and under the same terms, in the case of `NCCCNCCCCNCCCN` [spermine] it was “SpeG acetylated the long polyamines Spermine and Spermidine”.
Turning to “his-Dpa (A. baumannii diaminopropane acetyltransferase Dpa, wild type) (enzyme)”, the stoichiometry N in assay [1] and in assay [2] was 2 throughout.
“his-Dpa_(Y128F) (catalytically impaired Dpa) (enzyme)” came in with a stoichiometry N in assay [3] of 2.
